Results published in US10399940B2, “Substituted pyrrolidines and methods of use” (AbbVie S.à.r.l., priority 2016, dated 2019).
Like-named read-outs stand apart in the source and are kept apart here.

Molecular target: T1, F508delCFTR (Homo sapiens, UniProt P13569, DEL508-508)
T1 construct: expressed in transfected cells; host or cells: CFBE41o- (human lung derived epithelial cell line), doxycycline-inducible expression
Assay: Cell Surface Expression-Horse Radish Peroxidase (CSE-HRP) assay
Assay type: cell-based
Details: CFBE41o-F508delCFTR-HRP cells; for Maximum % activity (with co-corrector): with co-corrector (2 μM); for Maximum % activity (with co-corrector) / Maximum % activity (without co-corrector): normalized to on-plate positive control, highest concentration 20 μM
Procedure, shortened: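 Surface F508delCFTR-HRP was read by luminol luminescence after 18–24 h compound exposure at 33 °C, without or with 2 μM co-corrector. Doses were eight 3-fold steps from 20 μM, in doxycycline-induced (0.5 μg/mL, 72 h) CFBE41o- cells. % activity was scaled to the on-plate 2 μM positive control minus DMSO; EC50 came from a variable-slope sigmoid fit.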

[1] = test compound without co-corrector, 18-24 hours at 33° C., read-out: EC50 (without co-corrector)
[2] = with co-corrector (2 μM of 3-[(2R,4R)-4-({[1-(2,2-difluoro-1,3-benzodioxol-5-yl)cyclopropyl]carbonyl}amino)-7-methoxy-3,4-dihydro-2H-chromen-2-yl]benzoic acid), read-out: EC50 (with co-corrector)

T1 sequence (P13569 with tags, fused parts or gaps DEL508-508): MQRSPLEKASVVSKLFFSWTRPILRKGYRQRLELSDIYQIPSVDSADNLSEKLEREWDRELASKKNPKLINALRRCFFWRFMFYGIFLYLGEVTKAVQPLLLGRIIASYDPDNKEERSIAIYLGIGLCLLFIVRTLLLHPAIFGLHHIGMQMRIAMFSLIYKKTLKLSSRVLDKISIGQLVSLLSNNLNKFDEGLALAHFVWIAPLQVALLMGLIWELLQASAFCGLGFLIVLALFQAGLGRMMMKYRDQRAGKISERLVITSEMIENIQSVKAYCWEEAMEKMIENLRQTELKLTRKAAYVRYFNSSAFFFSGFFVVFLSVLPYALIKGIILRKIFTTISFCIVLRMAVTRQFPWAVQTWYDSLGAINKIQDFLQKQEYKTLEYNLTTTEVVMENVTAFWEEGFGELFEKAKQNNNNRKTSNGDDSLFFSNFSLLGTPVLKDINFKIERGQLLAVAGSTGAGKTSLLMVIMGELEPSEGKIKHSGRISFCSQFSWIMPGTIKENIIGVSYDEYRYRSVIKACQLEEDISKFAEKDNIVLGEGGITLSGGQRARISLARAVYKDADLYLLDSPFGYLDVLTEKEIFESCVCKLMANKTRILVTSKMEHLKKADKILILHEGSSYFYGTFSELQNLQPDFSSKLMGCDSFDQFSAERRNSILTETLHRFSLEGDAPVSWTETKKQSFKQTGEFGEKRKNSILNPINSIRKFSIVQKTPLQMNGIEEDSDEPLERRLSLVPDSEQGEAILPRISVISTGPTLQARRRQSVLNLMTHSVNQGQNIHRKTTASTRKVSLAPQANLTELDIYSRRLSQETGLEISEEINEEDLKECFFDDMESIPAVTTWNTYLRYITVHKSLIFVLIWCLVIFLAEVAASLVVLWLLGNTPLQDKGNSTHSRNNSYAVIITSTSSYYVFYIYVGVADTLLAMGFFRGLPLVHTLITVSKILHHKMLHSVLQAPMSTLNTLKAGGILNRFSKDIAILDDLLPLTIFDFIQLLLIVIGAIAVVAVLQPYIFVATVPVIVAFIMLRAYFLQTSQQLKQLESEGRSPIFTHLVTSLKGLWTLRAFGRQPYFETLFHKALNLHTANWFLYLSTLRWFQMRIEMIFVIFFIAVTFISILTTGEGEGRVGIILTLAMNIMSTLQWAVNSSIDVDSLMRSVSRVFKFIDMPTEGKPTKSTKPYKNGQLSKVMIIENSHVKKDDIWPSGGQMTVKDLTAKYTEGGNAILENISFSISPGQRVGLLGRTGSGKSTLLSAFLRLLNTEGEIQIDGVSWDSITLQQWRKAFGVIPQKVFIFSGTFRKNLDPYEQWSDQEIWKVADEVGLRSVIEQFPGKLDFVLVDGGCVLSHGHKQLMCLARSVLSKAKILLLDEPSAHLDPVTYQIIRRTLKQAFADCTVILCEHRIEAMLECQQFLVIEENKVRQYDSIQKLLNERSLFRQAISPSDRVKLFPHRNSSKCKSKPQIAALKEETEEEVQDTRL

Compound	EC50 [1]	EC50 [2]	Maximum % activity (with co-corrector)	Maximum % activity (without co-corrector)
COc1ccc(Br)cc1CO[C@H]1[C@H](C(C)(C)C)[C@@H](C(=O)O)N(C(=O)[C@@H]2CCC[C@@H](OC)C2)[C@H]1c1ccccc1 [Example 37, (2S,3R,4S,5S)-4-[(5-bromo-2-methoxyphenyl)methoxy]-3-tert-butyl-1-[(1R,3R)-3-methoxycyclohexane-1-carbonyl]-5-phenylpyrrolidine-2-carboxylic acid]	1000 to 10000 nM	1000 to 10000 nM	+++ (≥350)	+++ (≥200)
COc1ccc(-c2ccccc2)cc1CO[C@H]1[C@H](C(C)(C)C)[C@@H](C(=O)O)N(C(=O)OC(C)C)[C@H]1c1ccccc1 [Example 38, (2S,3R,4S,5S)-3-tert-butyl-4-[(4-methoxy[1,1′-biphenyl]-3-yl)methoxy]-5-phenyl-1-{[(propan-2-yl)oxy]carbonyl}pyrrolidine-2-carboxylic acid]	1000 to 10000 nM	1000 to 10000 nM	+++ (≥350)	++ (≥100 and <200)
COc1ccc(-c2ccccc2)cc1CO[C@H]1[C@H](C(C)(C)C)[C@@H](C(=O)O)N(C(=O)[C@@H]2CCC[C@@H](OC)C2)[C@H]1c1ccccc1 [Example 39, (2S,3R,4S,5S)-3-tert-butyl-4-[(4-methoxy[1,1′-biphenyl]-3-yl)methoxy]-1-[(1R,3R)-3-methoxycyclohexane-1-carbonyl]-5-phenylpyrrolidine-2-carboxylic acid]	1000 to 10000 nM	1000 to 10000 nM	+++ (≥350)	+++ (≥200)
COc1ncc(Br)cc1CO[C@H]1[C@H](C(C)(C)C)[C@@H](C(=O)O)N(C(=O)OC(C)C)[C@H]1c1ccccc1 [Example 40, (2S,3R,4S,5S)-4-[(5-bromo-2-methoxypyridin-3-yl)methoxy]-3-tert-butyl-5-phenyl-1-{[(propan-2-yl)oxy]carbonyl}pyrrolidine-2-carboxylic acid]	1000 to 10000 nM	1000 to 10000 nM	+++ (≥350)	++ (≥100 and <200)
COc1ncc(C(F)(F)F)cc1CO[C@H]1[C@H](C(C)(C)C)[C@@H](C(=O)O)N(C(=O)C2CCCCC2)[C@H]1c1ccccc1 [Example 41, (2S,3R,4S,5S)-3-tert-butyl-1-(cyclohexanecarbonyl)-4-{[2-methoxy-5-(trifluoromethyl)pyridin-3-yl]methoxy}-5-phenylpyrrolidine-2-carboxylic acid]	< 1000 nM	< 1000 nM	+++ (≥350)	++ (≥100 and <200)
COc1ncc(-c2ccccc2)cc1CO[C@H]1[C@H](C(C)(C)C)[C@@H](C(=O)O)N(C(=O)OC(C)C)[C@H]1c1ccccc1 [Example 42, (2S,3R,4S,5S)-3-tert-butyl-4-[(2-methoxy-5-phenylpyridin-3-yl)methoxy]-5-phenyl-1-{[(propan-2-yl)oxy]carbonyl}pyrrolidine-2-carboxylic acid]	1000 to 10000 nM	1000 to 10000 nM	+++ (≥350)	+ (<100)
COc1ncc(C2CCCCC2)cc1CO[C@H]1[C@H](C(C)(C)C)[C@@H](C(=O)O)N(C(=O)OC(C)C)[C@H]1c1ccccc1 [Example 43, (2S,3R,4S,5S)-3-tert-butyl-4-[(5-cyclohexyl-2-methoxypyridin-3-yl)methoxy]-5-phenyl-1-{[(propan-2-yl)oxy]carbonyl}pyrrolidine-2-carboxylic acid]	1000 to 10000 nM	1000 to 10000 nM	+++ (≥350)	+ (<100)
COc1ncc(C2CCCC2)cc1CO[C@H]1[C@H](C(C)(C)C)[C@@H](C(=O)O)N(C(=O)OC(C)C)[C@H]1c1ccccc1 [Example 44, (2S,3R,4S,5S)-3-tert-butyl-4-[(5-cyclopentyl-2-methoxypyridin-3-yl)methoxy]-5-phenyl-1-{[(propan-2-yl)oxy]carbonyl}pyrrolidine-2-carboxylic acid]	1000 to 10000 nM	1000 to 10000 nM	+++ (≥350)	+ (<100)
COc1ncc(C2CCC2)cc1CO[C@H]1[C@H](C(C)(C)C)[C@@H](C(=O)O)N(C(=O)OC(C)C)[C@H]1c1ccccc1 [Example 45, (2S,3R,4S,5S)-3-tert-butyl-4-[(5-cyclobutyl-2-methoxypyridin-3-yl)methoxy]-5-phenyl-1-{[(propan-2-yl)oxy]carbonyl}pyrrolidine-2-carboxylic acid]	1000 to 10000 nM	1000 to 10000 nM	+++ (≥350)	++ (≥100 and <200)
COc1ccc(C(C)(C)C)cc1CO[C@H]1[C@H](C(C)(C)C)[C@@H](C(=O)O)N(C(=O)[C@@H]2CCC[C@@H](OC)C2)[C@H]1c1ccccc1 [Example 46, (2S,3R,4S,5S)-3-tert-butyl-4-[(5-tert-butyl-2-methoxyphenyl)methoxy]-1-[(1R,3R)-3-methoxycyclohexane-1-carbonyl]-5-phenylpyrrolidine-2-carboxylic acid]	< 1000 nM	< 1000 nM	+++ (≥350)	+++ (≥200)
COc1ccc(C(C)(C)C)cc1CO[C@H]1[C@H](C(C)(C)C)[C@@H](C(=O)O)N(C(=O)OC(C)C)[C@H]1c1ccccc1 [Example 47, (2S,3R,4S,5S)-3-tert-butyl-4-[(5-tert-butyl-2-methoxyphenyl)methoxy]-5-phenyl-1-{[(propan-2-yl)oxy]carbonyl}pyrrolidine-2-carboxylic acid]	1000 to 10000 nM	1000 to 10000 nM	+++ (≥350)	+++ (≥200)
COc1ncc(C(F)(F)F)cc1CO[C@H]1[C@H](C(C)(C)C)[C@@H](C(=O)O)N(C(=O)C2CCCCC2)[C@H]1c1ccccc1F [Example 48, (2S,3R,4S,5S)-3-tert-butyl-1-(cyclohexanecarbonyl)-5-(2-fluorophenyl)-4-{[2-methoxy-5-(trifluoromethyl)pyridin-3-yl]methoxy}pyrrolidine-2-carboxylic acid]	1000 to 10000 nM	1000 to 10000 nM	+++ (≥350)	++ (≥100 and <200)
COc1ccc(C(F)(F)F)cc1CO[C@H]1[C@H](C(C)(C)C)[C@@H](C(=O)O)N(C(=O)C2CCCCC2)[C@H]1c1ccccc1F [Example 49, (2S,3R,4S,5S)-3-tert-butyl-1-(cyclohexanecarbonyl)-5-(2-fluorophenyl)-4-{[2-methoxy-5-(trifluoromethyl)phenyl]methoxy}pyrrolidine-2-carboxylic acid]	1000 to 10000 nM	1000 to 10000 nM	+++ (≥350)	++ (≥100 and <200)
COc1ccc(C(C)(C)C)cc1CO[C@H]1[C@H](C(C)(C)C)[C@@H](C(=O)O)N(C(=O)C2CCCCC2)[C@H]1c1ccccc1F [Example 50, (2S,3R,4S,5S)-3-tert-butyl-4-[(5-tert-butyl-2-methoxyphenyl)methoxy]-1-(cyclohexanecarbonyl)-5-(2-fluorophenyl)pyrrolidine-2-carboxylic acid]	< 1000 nM	< 1000 nM	+++ (≥350)	+++ (≥200)
COc1ncc(Br)cc1CO[C@H]1[C@H](C(C)(C)C)[C@@H](C(=O)O)N(C(=O)C2CCCCC2)[C@H]1c1ccccc1F [Example 51, (2S,3R,4S,5S)-4-[(5-bromo-2-methoxypyridin-3-yl)methoxy]-3-tert-butyl-1-(cyclohexanecarbonyl)-5-(2-fluorophenyl)pyrrolidine-2-carboxylic acid]	1000 to 10000 nM	1000 to 10000 nM	+++ (≥350)	++ (≥100 and <200)
COc1ncc(-c2ccccc2)cc1CO[C@H]1[C@H](C(C)(C)C)[C@@H](C(=O)O)N(C(=O)C2CCCCC2)[C@H]1c1ccccc1F [Example 52, (2S,3R,4S,5S)-3-tert-butyl-1-(cyclohexanecarbonyl)-5-(2-fluorophenyl)-4-[(2-methoxy-5-phenylpyridin-3-yl)methoxy]pyrrolidine-2-carboxylic acid]	1000 to 10000 nM	1000 to 10000 nM	+++ (≥350)	+ (<100)
COc1ncc(C2CCC2)cc1CO[C@H]1[C@H](C(C)(C)C)[C@@H](C(=O)O)N(C(=O)C2CCCCC2)[C@H]1c1ccccc1 [Example 53, (2S,3R,4S,5S)-3-tert-butyl-4-[(5-cyclobutyl-2-methoxypyridin-3-yl)methoxy]-1-(cyclohexanecarbonyl)-5-phenylpyrrolidine-2-carboxylic acid]	< 1000 nM	< 1000 nM	+++ (≥350)	++ (≥100 and <200)
COc1ncc(C2CCCC2)cc1CO[C@H]1[C@H](C(C)(C)C)[C@@H](C(=O)O)N(C(=O)C2CCCCC2)[C@H]1c1ccccc1 [Example 54, (2S,3R,4S,5S)-3-tert-butyl-1-(cyclohexanecarbonyl)-4-[(5-cyclopentyl-2-methoxypyridin-3-yl)methoxy]-5-phenylpyrrolidine-2-carboxylic acid]	< 1000 nM	< 1000 nM	+++ (≥350)	++ (≥100 and <200)
